Laboratory results published in US20230416329A1, “A PEPTIDE WITH DISULFIDE BONDS AND INHIBITORY ACTIVITY AGAINST SERINE PROTEASES, DERIVED HYBRID PEPTIDES THEREOF, AND USES THEREOF” (INSTITUTE OF MATERIA MEDICA , CHINESE ACADEMY OF MEDICAL …, priority 2020, published 2023).
Where two headings read alike, the source gives them in different places. Bridge positions count the residues as written; N and C are the ends. Square brackets hold non-standard residues; d marks the D form. Peptide text beside a SMILES is read from it. Hyp = O=C(O)[C@@H]1C[C@@H](O)CN1; hCys = N[C@@H](CCS)C(=O)O

Target: T1, bovine trypsin (Bos taurus, UniProt P00760)
T1 sequence (P00760 24-246): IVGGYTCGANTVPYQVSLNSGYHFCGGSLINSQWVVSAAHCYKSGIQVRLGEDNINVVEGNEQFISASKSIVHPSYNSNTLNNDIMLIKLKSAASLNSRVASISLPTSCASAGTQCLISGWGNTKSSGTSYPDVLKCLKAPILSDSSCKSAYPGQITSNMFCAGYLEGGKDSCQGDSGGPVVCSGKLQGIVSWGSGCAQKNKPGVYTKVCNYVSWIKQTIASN
Experiment: Trypsin inhibitory activity of peptides (BApNA hydrolysis, OD405; IC50, Ki, residual activity)
Assay type: biochemical
Conditions: for Ki: Ki=IC50/(1+S/Km), Km 0.33 mM, read-out: Ki; for IC50: trypsin 50 nM, BApNA 1.22 mM, read-out: IC50
In short: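 Trypsin (50 nM final) preincubated with peptides at 37 °C in 50 mM Tris-HCl pH 7.8, 20 mM CaCl2; BApNA added (1.22 mM final), 260 min at 37 °C, then OD405 read. Residual activity from enzyme-only and substrate-only controls; IC50 fitted and converted to Ki via Ki=IC50/(1+S/Km), Km measured separately for BApNA.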

Row | Structure (SMILES) | inhibitory activity against trypsin (in words) | Ki [nM] | Residual trypsin activity (peptide 0.0098 μM) [%] | Residual trypsin activity (peptide 0.098 μM) [%] | Residual trypsin activity (peptide 0.98 μM) [%] | Residual trypsin activity (peptide 9.76 μM) [%] | IC50 [nM] | other results
1 | CC[C@H](C)[C@@H]1NC(=O)[C@@H]2CCCN2C(=O)[C@@H]2CCCN2C(=O)[C@H]([C@@H](C)CC)NC(=O)[C@H](C)NC(=O)[C@H](CCCCN)NC(=O)[C@H]([C@@H](C)O)NC(=O)[C@H](C)NC(=O)[C@H](CCCNC(=N)N)NC(=O)CNC(=O)[C@@H](N)CSSC[C@@H](C(=O)N[C@@H](Cc2ccccc2)C(=O)O)NC1=O [BT27] (H-CGRATKAIPPICF-OH; disulfide 1-12; C-terminus assumed) | reduced their anti-trypsin activities | 60 | 103.5 ± 2.4 | 92.0 ± 1.9 | 1.3 ± 0.3 | 0.1 ± 0.0 |  | inhibitory activity against trypsin (in words) (listed as SEQ ID NO: 27): excellent trypsin inhibitory activities; Residual trypsin activity (peptide 0.000098 μM): 101.0 ± 0.7%; Residual trypsin activity (peptide 0.00098 μM): 98.9 ± 1.5%; Residual trypsin activity (peptide 0.195 μM): 74.1 ± 1.3%; Residual trypsin activity (peptide 0.293 μM): 49.2 ± 3.0%; Residual trypsin activity (peptide 0.390 μM): 19.9 ± 6.3%; Residual trypsin activity (peptide 97.56 μM): 0.1 ± 0.0%
2 | CC[C@H](C)[C@@H]1NC(=O)[C@@H]2CCCN2C(=O)[C@@H]2CCCN2C(=O)[C@H](C)NC(=O)[C@H](CO)NC(=O)[C@H](CCCNC(=N)N)NC(=O)[C@H]([C@@H](C)O)NC(=O)[C@H](C)NC(=O)[C@H](CCCNC(=N)N)NC(=O)CNC(=O)[C@@H](N)CSSC[C@@H](C(=O)N[C@@H](Cc2ccccc2)C(=O)O)NC1=O [BT21] (H-CGRATRSAPPICF-OH; disulfide 1-12; N-terminus and C-terminus assumed) | reduced their anti-trypsin activities |  |  |  |  |  |  | 
3 | CC[C@H](C)[C@@H]1NC(=O)[C@@H]2CCCN2C(=O)[C@@H]2CCCN2C(=O)[C@H]([C@@H](C)CC)NC(=O)[C@H](CO)NC(=O)[C@H](CCCCN)NC(=O)[C@H](C)NC(=O)[C@H](C)NC(=O)[C@H](CCCNC(=N)N)NC(=O)CNC(=O)[C@@H](N)CSSC[C@@H](C(=O)N[C@@H](Cc2ccccc2)C(=O)O)NC1=O [BT26] (H-CGRAAKSIPPICF-OH; disulfide 1-12; N-terminus and C-terminus assumed) |  |  | 99.5 ± 0.9 | 100.2 ± 1.4 | 94.5 ± 0.7 | 0.4 ± 0.1 |  | Residual trypsin activity (peptide 1.95 μM): 77.6 ± 3.1%; Residual trypsin activity (peptide 2.439 μM): 55.1 ± 1.3%; Residual trypsin activity (peptide 3.90 μM): 1.4 ± 0.1%; Residual trypsin activity (peptide 97.56 μM): 0.1 ± 0.0%; Residual trypsin activity (peptide 975.61 μM): 0.5 ± 0.0%
4 | CC[C@H](C)[C@@H]1NC(=O)[C@@H]2CCCN2C(=O)[C@@H]2CCCN2C(=O)[C@H]([C@@H](C)CC)NC(=O)[C@H](CO)NC(=O)[C@H](CCCCN)NC(=O)[C@H]([C@@H](C)O)NC(=O)[C@H](CC(N)=O)NC(=O)[C@H](CCCNC(=N)N)NC(=O)CNC(=O)[C@@H](N)CSSC[C@@H](C(=O)N[C@@H](Cc2ccccc2)C(=O)O)NC1=O [BT55] (H-CGRNTKSIPPICF-OH; disulfide 1-12; C-terminus assumed) | excellent trypsin inhibitory activities | 60 |  |  |  |  |  | 
5 | CC[C@H](C)[C@@H]1NC(=O)[C@@H]2CCCN2C(=O)[C@@H]2CCCN2C(=O)[C@H]([C@@H](C)CC)NC(=O)[C@H](CO)NC(=O)[C@H](CCCCN)NC(=O)[C@H]([C@@H](C)O)NC(=O)[C@H](C)NC(=O)[C@H](CCCNC(=N)N)NC(=O)[C@H](CCC(=O)O)NC(=O)[C@@H](N)CSSC[C@@H](C(=O)N[C@@H](Cc2ccccc2)C(=O)O)NC1=O [BT78] (H-CERATKSIPPICF-OH; disulfide 1-12; N-terminus and C-terminus assumed) | excellent trypsin inhibitory activities |  |  |  |  |  | 30 | 
6 | CC[C@H](C)[C@@H]1NC(=O)[C@@H]2CCCN2C(=O)[C@@H]2CCCN2C(=O)[C@H]([C@@H](C)CC)NC(=O)[C@H](CO)NC(=O)[C@H](CCCCN)NC(=O)[C@H]([C@@H](C)O)NC(=O)[C@H](C)NC(=O)[C@H](CCCNC(=N)N)NC(=O)[C@@H]2C[C@@H](O)CN2C(=O)[C@@H](N)CSSC[C@@H](C(=O)N[C@@H](Cc2ccccc2)C(=O)O)NC1=O [BT46] (H-C[Hyp]RATKSIPPICF-OH; disulfide 1-12; C-terminus assumed) | excellent trypsin inhibitory activities | 10 |  |  |  |  | 70 | 
7 | CC[C@H](C)[C@@H]1NC(=O)[C@H](CCCCN)NC(=O)[C@@H]2CCCN2C(=O)[C@H](C)NC(=O)[C@H](CCCNC(=N)N)NC(=O)CNC(=O)[C@@H](N)CSSC[C@@H](C(=O)N[C@@H](Cc2ccccc2)C(=O)O)NC(=O)[C@H](CCCCN)NC(=O)[C@H](CCCCN)NC(=O)[C@H](CC(C)C)NC1=O [BT42] (H-CGRAPKILKKCF-OH; disulfide 1-11) |  |  |  |  |  |  | > 50000 | 
8 | CC[C@H](C)[C@@H]1NC(=O)[C@@H]2CCCN2C(=O)[C@@H]2CCCN2C(=O)[C@H]([C@@H](C)CC)NC(=O)[C@H](CO)NC(=O)[C@H](CCCCN)NC(=O)[C@H]([C@@H](C)O)NC(=O)[C@H](C)NC(=O)[C@H](CCCNC(=N)N)NC(=O)CNC(=O)[C@@H](N)CCSSCC[C@@H](C(=O)O)NC(=O)[C@H](Cc2ccccc2)NC(=O)[C@H](C)NC1=O [BT29] (H-[hCys]GRATKSIPPIAF[hCys]-OH; disulfide 1-14; N-terminus assumed) | still maintained good inhibitory activity against trypsin |  |  |  |  |  |  | 
9 | CC[C@H](C)[C@@H]1NC(=O)[C@@H]2CCCN2C(=O)[C@@H]2CCCN2C(=O)[C@H]([C@@H](C)CC)NC(=O)[C@H](CO)NC(=O)[C@H](CCCCN)NC(=O)[C@H]([C@@H](C)O)NC(=O)[C@H](C)NC(=O)[C@H]([C@@H](C)O)NC(=O)CNC(=O)[C@@H](N)CSSC[C@@H](C(=O)N[C@@H](Cc2ccccc2)C(=O)O)NC1=O [BT25] (H-CGTATKSIPPICF-OH; disulfide 1-12; C-terminus assumed) | excellent trypsin inhibitory activities |  | 99.6 ± 1.4 | 100.4 ± 1.2 | 49.7 ± 3.5 | 1.0 ± 0.1 |  | Residual trypsin activity (peptide 0.00098 μM): 100.6 ± 1.3%; Residual trypsin activity (peptide 0.7317 μM): 82.3 ± 3.9%; Residual trypsin activity (peptide 1.2195 μM): 23.2 ± 2.1%; Residual trypsin activity (peptide 97.56 μM): 0.2 ± 0.1%; Residual trypsin activity (peptide 292.68 μM): 0.2 ± 0.2%
10 | CC[C@H](C)[C@@H]1NC(=O)[C@@H]2CCCN2C(=O)[C@@H]2CCCN2C(=O)[C@H]([C@@H](C)CC)NC(=O)[C@H](CO)NC(=O)[C@H](CCCNC(=N)N)NC(=O)[C@H]([C@@H](C)O)NC(=O)[C@H](C)NC(=O)[C@H](CCCNC(=N)N)NC(=O)CNC(=O)[C@@H](N)CSSC[C@@H](C(=O)N[C@@H](C)C(=O)O)NC1=O [BT19] (H-CGRATRSIPPICA-OH; disulfide 1-12; N-terminus and C-terminus assumed) | significant impact on their anti-trypsisn activities |  |  |  |  |  |  | 
11 | CC[C@H](C)[C@@H]1NC(=O)[C@@H]2CCCN2C(=O)[C@@H]2CCCN2C(=O)[C@H]([C@@H](C)CC)NC(=O)[C@H](CO)NC(=O)[C@H](CCCCN)NC(=O)[C@H]([C@@H](C)O)NC(=O)[C@H](C)NC(=O)[C@H](CCCNC(=N)N)NC(=O)[C@@H]2CCCN2C(=O)[C@@H](N)CSSC[C@@H](C(=O)N[C@@H](Cc2ccccc2)C(=O)O)NC1=O [BT66] (H-CPRATKSIPPICF-OH; disulfide 1-12; C-terminus assumed) | higher trypsin inhibitory activities | 10 | 106.2 ± 3.4 | 4.8 ± 0.7 | 0.1 ± 0.0 | 0.1 ± 0.0 | 60 | inhibitory activity against trypsin (in words) (listed as SEQ ID NO: 66): excellent trypsin inhibitory activities; Residual trypsin activity (peptide 0.000098 μM): 107.0 ± 6.2%; Residual trypsin activity (peptide 0.00098 μM): 104.7 ± 2.1%; Residual trypsin activity (peptide 0.0488 μM): 66.8 ± 8.2%; Residual trypsin activity (peptide 0.0585 μM): 55.7 ± 2.4%; Residual trypsin activity (peptide 0.0780 μM): 13.9 ± 4.2%
12 | CC[C@H](C)[C@@H]1NC(=O)[C@H](CCCNC(=N)N)NC(=O)CNC(=O)[C@@H](N)CSSC[C@@H](C(=O)N[C@@H](Cc2ccccc2)C(=O)O)NC(=O)[C@H]([C@@H](C)CC)NC(=O)[C@@H]2CCCN2C(=O)[C@@H]2CCCN2C(=O)[C@H]([C@@H](C)CC)NC(=O)[C@H](CO)NC(=O)[C@H](CCCCN)NC(=O)[C@H]([C@@H](C)O)NC1=O [BT49] (H-CGRITKSIPPICF-OH; disulfide 1-12; C-terminus assumed) | excellent trypsin inhibitory activities | 110 |  |  |  |  |  | 
13 | CC[C@H](C)[C@@H]1NC(=O)[C@@H]2CCCN2C(=O)[C@@H]2CCCN2C(=O)[C@H]([C@@H](C)CC)NC(=O)[C@H](CO)NC(=O)[C@H](CCCCN)NC(=O)[C@H]([C@@H](C)O)NC(=O)[C@H](C)NC(=O)[C@H](CCCNC(=N)N)NC(=O)[C@H](CCCCN)NC(=O)[C@@H](N)CSSC[C@@H](C(=O)N[C@@H](Cc2ccccc2)C(=O)O)NC1=O [BT77] (H-CKRATKSIPPICF-OH; disulfide 1-12; N-terminus and C-terminus assumed) | excellent trypsin inhibitory activities | 8.5 |  |  |  |  | 40 | 
